Reference: ChEMBL document CHEMBL4261593, “Synthesis and antibacterial activity of novel 3-O-arylalkylcarbamoyl-3-O-descladinosyl-9-O-(2-chlorobenzyl)oxime clarithromycin derivatives” (2018)
Values after ≈ are worked out from the molar mass of the structure shown.

Experiments:
Type in all cases: functional
[1] = tested on: Streptococcus pneumoniae; assay: Antibacterial activity against erythromycin-resistant Streptococcus pneumoniae AB11 expressing ermB and mefA genes after 24 hrs by broth dilution assay; settings: AB11, 24 h
[2] = tested on: Staphylococcus aureus; assay: Antibacterial activity against penicillin-resistant Staphylococcus aureus ATCC 31007 after 24 hrs by broth dilution assay; settings: ATCC 31007, 24 h
[3] = tested on: Staphylococcus aureus; assay: Antibacterial activity against […] Staphylococcus aureus ATCC 29213 after 24 hrs by broth dilution assay; settings: ATCC 29213, 24 h
[4] = tested on: Pseudomonas aeruginosa; assay: Antibacterial activity against penicillin-susceptible Pseudomonas aeruginosa ATCC 27853 after 24 hrs by broth dilution assay; settings: ATCC 27853, 24 h
[5] = tested on: Escherichia coli; assay: Antibacterial activity against penicillin-susceptible Escherichia coli ATCC 25922 after 24 hrs by broth dilution assay; settings: ATCC 25922, 24 h
[6] = tested on: Staphylococcus aureus; assay: Antibacterial activity against erythromycin-susceptible Staphylococcus aureus ATCC 25923 after 24 hrs by broth dilution assay; settings: ATCC 25923, 24 h
[7] = tested on: Streptococcus pyogenes; assay: Potency index, ratio of AZM MIC to compound MIC for antibacterial activity against erythromycin-resistant Streptococcus pyogenes 2
[8] = tested on: Streptococcus pneumoniae; assay: Antibacterial activity against erythromycin-resistant Streptococcus pneumoniae B1 expressing ermB gene after 24 hrs by broth dilution assay; settings: B1, 24 h
[9] = tested on: Streptococcus pyogenes; assay: Antibacterial activity against erythromycin-resistant Streptococcus pyogenes 2 after 24 hrs by broth dilution assay; settings: Streptococcus pyogenes, 2, 24 h
[10] = tested on: Bacillus subtilis; assay: Antibacterial activity against penicillin-susceptible Bacillus subtilis ATCC 9372 after 24 hrs by broth dilution assay; settings: ATCC 9372, 24 h
[11] = tested on: Streptococcus pyogenes; assay: Antibacterial activity against erythromycin-susceptible Streptococcus pyogenes 1 after 24 hrs by broth dilution assay; settings: Streptococcus pyogenes, 1, 24 h
[12] = tested on: Streptococcus pyogenes; assay: Potency index, ratio of CAM MIC to compound MIC for antibacterial activity against erythromycin-resistant Streptococcus pyogenes 2
[13] = tested on: Streptococcus pneumoniae; assay: Antibacterial activity against erythromycin-resistant Streptococcus pneumoniae A22072 expressing mefA gene after 24 hrs by broth dilution assay; settings: A22072, 24 h
[14] = tested on: Staphylococcus aureus; assay: Potency index, ratio of AZM MIC to compound MIC for antibacterial activity against penicillin-resistant Staphylococcus aureus ATCC 31007
[15] = tested on: Staphylococcus aureus; assay: Potency index, ratio of CAM MIC to compound MIC for antibacterial activity against penicillin-resistant Staphylococcus aureus ATCC 31007

SMILES	MIC [1] [µg/mL]	MIC [2] [µg/mL]	MIC [3] [µg/mL]	MIC [4] [µg/mL]	MIC [5] [µg/mL]	MIC [6] [µg/mL]	Ratio [7]	MIC [8] [µg/mL]	MIC [9] [µg/mL]	MIC [10] [µg/mL]	MIC [11] [µg/mL]	Ratio [12]	MIC [13] [µg/mL]	Ratio [14]	Ratio [15]
CCCCNC(=O)O[C@H]1[C@H](C)[C@@H](O[C@@H]2O[C@H](C)C[C@H](N(C)C)[C@H]2O)[C@](C)(OC)C[C@@H](C)/C(=N/OCc2ccccc2Cl)[C@H](C)[C@@H](O)[C@](C)(O)[C@@H](CC)OC(=O)[C@@H]1C	128 (≈ 154 µM)	8 (≈ 9.66 µM)	128 (≈ 154 µM)	128 (≈ 154 µM)	128 (≈ 154 µM)	4 (≈ 4.83 µM)	32	128 (≈ 154 µM)	8 (≈ 9.66 µM)	2 (≈ 2.41 µM)	1 (≈ 1.21 µM)	32	0.5 (≈ 0.604 µM)		
CC[C@H]1OC(=O)[C@H](C)[C@@H](OC(=O)NCc2ccc(Cl)cc2)[C@H](C)[C@@H](O[C@@H]2O[C@H](C)C[C@H](N(C)C)[C@H]2O)[C@](C)(OC)C[C@@H](C)/C(=N/OCc2ccccc2Cl)[C@H](C)[C@@H](O)[C@]1(C)O	128 (≈ 143 µM)	4 (≈ 4.46 µM)	128 (≈ 143 µM)	128 (≈ 143 µM)	128 (≈ 143 µM)	8 (≈ 8.92 µM)	32	128 (≈ 143 µM)	8 (≈ 8.92 µM)	2 (≈ 2.23 µM)	2 (≈ 2.23 µM)	32	0.5 (≈ 0.557 µM)	64	64
CC[C@H]1OC(=O)[C@H](C)[C@@H](OC(=O)NCc2ccccc2)[C@H](C)[C@@H](O[C@@H]2O[C@H](C)C[C@H](N(C)C)[C@H]2O)[C@](C)(OC)C[C@@H](C)/C(=N/OCc2ccccc2Cl)[C@H](C)[C@@H](O)[C@]1(C)O	128 (≈ 148 µM)	4 (≈ 4.64 µM)	128 (≈ 148 µM)	128 (≈ 148 µM)	128 (≈ 148 µM)	8 (≈ 9.28 µM)		128 (≈ 148 µM)	16 (≈ 18.6 µM)	2 (≈ 2.32 µM)	2 (≈ 2.32 µM)		0.5 (≈ 0.58 µM)	64	64
CC[C@H]1OC(=O)[C@H](C)[C@@H](OC(=O)NCc2ccc(C)cc2)[C@H](C)[C@@H](O[C@@H]2O[C@H](C)C[C@H](N(C)C)[C@H]2O)[C@](C)(OC)C[C@@H](C)/C(=N/OCc2ccccc2Cl)[C@H](C)[C@@H](O)[C@]1(C)O	128 (≈ 146 µM)	4 (≈ 4.56 µM)	128 (≈ 146 µM)	128 (≈ 146 µM)	128 (≈ 146 µM)	8 (≈ 9.13 µM)		128 (≈ 146 µM)	16 (≈ 18.3 µM)	2 (≈ 2.28 µM)	2 (≈ 2.28 µM)		1 (≈ 1.14 µM)		
CC[C@H]1OC(=O)[C@H](C)[C@@H](OC(=O)NC2CCCCC2)[C@H](C)[C@@H](O[C@@H]2O[C@H](C)C[C@H](N(C)C)[C@H]2O)[C@](C)(OC)C[C@@H](C)/C(=N/OCc2ccccc2Cl)[C@H](C)[C@@H](O)[C@]1(C)O	128 (≈ 150 µM)	8 (≈ 9.36 µM)	128 (≈ 150 µM)	128 (≈ 150 µM)	128 (≈ 150 µM)	16 (≈ 18.7 µM)		128 (≈ 150 µM)	16 (≈ 18.7 µM)	4 (≈ 4.68 µM)	2 (≈ 2.34 µM)		1 (≈ 1.17 µM)		
CC[C@H]1OC(=O)[C@H](C)[C@@H](O[C@H]2C[C@@](C)(OC)[C@@H](O)[C@H](C)O2)[C@H](C)[C@@H](O[C@@H]2O[C@H](C)C[C@H](N(C)C)[C@H]2O)[C@](C)(OC)C[C@@H](C)C(=O)[C@H](C)[C@@H](O)[C@]1(C)O [CLARITHROMYCIN]	128 (≈ 171 µM)	256 (≈ 342 µM)	64 (≈ 85.6 µM)	32 (≈ 42.8 µM)	32 (≈ 42.8 µM)	0.25 (≈ 0.334 µM)		128 (≈ 171 µM)	256 (≈ 342 µM)	0.25 (≈ 0.334 µM)	0.03 (≈ 0.0401 µM)		2 (≈ 2.67 µM)		
CC[C@H]1OC(=O)[C@H](C)[C@@H](OC(=O)NC2CCCC2)[C@H](C)[C@@H](O[C@@H]2O[C@H](C)C[C@H](N(C)C)[C@H]2O)[C@](C)(OC)C[C@@H](C)/C(=N/OCc2ccccc2Cl)[C@H](C)[C@@H](O)[C@]1(C)O	128 (≈ 152 µM)	8 (≈ 9.52 µM)	128 (≈ 152 µM)	128 (≈ 152 µM)	128 (≈ 152 µM)	16 (≈ 19 µM)		128 (≈ 152 µM)	16 (≈ 19 µM)	4 (≈ 4.76 µM)	2 (≈ 2.38 µM)		0.5 (≈ 0.595 µM)		
CC[C@H]1OC(=O)[C@H](C)[C@@H](OC(=O)NCc2ccc(OC)cc2)[C@H](C)[C@@H](O[C@@H]2O[C@H](C)C[C@H](N(C)C)[C@H]2O)[C@](C)(OC)C[C@@H](C)/C(=N/OCc2ccccc2Cl)[C@H](C)[C@@H](O)[C@]1(C)O	128 (≈ 143 µM)	8 (≈ 8.96 µM)	128 (≈ 143 µM)	128 (≈ 143 µM)	128 (≈ 143 µM)	16 (≈ 17.9 µM)		128 (≈ 143 µM)	16 (≈ 17.9 µM)	4 (≈ 4.48 µM)	4 (≈ 4.48 µM)		2 (≈ 2.24 µM)		
CC[C@H]1OC(=O)[C@H](C)[C@@H](OC(=O)NCCc2cccc(OC)c2)[C@H](C)[C@@H](O[C@@H]2O[C@H](C)C[C@H](N(C)C)[C@H]2O)[C@](C)(OC)C[C@@H](C)/C(=N/OCc2ccccc2Cl)[C@H](C)[C@@H](O)[C@]1(C)O	128 (≈ 141 µM)	4 (≈ 4.41 µM)	128 (≈ 141 µM)	128 (≈ 141 µM)	128 (≈ 141 µM)	8 (≈ 8.82 µM)		128 (≈ 141 µM)	8 (≈ 8.82 µM)	4 (≈ 4.41 µM)	2 (≈ 2.21 µM)		1 (≈ 1.1 µM)		
CC[C@H]1OC(=O)[C@H](C)[C@@H](OC(=O)NCCc2ccccc2)[C@H](C)[C@@H](O[C@@H]2O[C@H](C)C[C@H](N(C)C)[C@H]2O)[C@](C)(OC)C[C@@H](C)/C(=N/OCc2ccccc2Cl)[C@H](C)[C@@H](O)[C@]1(C)O	128 (≈ 146 µM)	8 (≈ 9.13 µM)	128 (≈ 146 µM)	128 (≈ 146 µM)	128 (≈ 146 µM)	16 (≈ 18.3 µM)		128 (≈ 146 µM)	16 (≈ 18.3 µM)	8 (≈ 9.13 µM)	8 (≈ 9.13 µM)		2 (≈ 2.28 µM)		
CCCCCCNC(=O)O[C@H]1[C@H](C)[C@@H](O[C@@H]2O[C@H](C)C[C@H](N(C)C)[C@H]2O)[C@](C)(OC)C[C@@H](C)/C(=N/OCc2ccccc2Cl)[C@H](C)[C@@H](O)[C@](C)(O)[C@@H](CC)OC(=O)[C@@H]1C	128 (≈ 149 µM)	4 (≈ 4.67 µM)	128 (≈ 149 µM)	128 (≈ 149 µM)	128 (≈ 149 µM)	16 (≈ 18.7 µM)		128 (≈ 149 µM)	8 (≈ 9.34 µM)	2 (≈ 2.33 µM)	2 (≈ 2.33 µM)		1 (≈ 1.17 µM)		
CC[C@H]1OC(=O)[C@H](C)[C@@H](OC(=O)NCCc2ccc(O)cc2)[C@H](C)[C@@H](O[C@@H]2O[C@H](C)C[C@H](N(C)C)[C@H]2O)[C@](C)(OC)C[C@@H](C)/C(=N/OCc2ccccc2Cl)[C@H](C)[C@@H](O)[C@]1(C)O	128 (≈ 143 µM)	4 (≈ 4.48 µM)	128 (≈ 143 µM)	128 (≈ 143 µM)	128 (≈ 143 µM)	4 (≈ 4.48 µM)	32	128 (≈ 143 µM)	8 (≈ 8.96 µM)	1 (≈ 1.12 µM)	0.5 (≈ 0.56 µM)	32	0.25 (≈ 0.28 µM)		
